{"source": "patent US9156881B2", "about": "“Tripeptide KDPT for antiapoptotic treatment” (WESTFAELISCHE WILHELMS-UNIVERSITAET MUENSTER, priority 2011, dated 2015)", "key": {"[1]": {"test_system": "human dermal microvascular endothelial cells (HMEC)", "assay": "M30-ApoptosisSense ELISA (cytokeratin 18) apoptosis rate in HMEC", "assay_type": "cell-based", "experimental": "To further elucidate the impact of KdPT administration on apoptosis in a different human cell line, additional experiments were performed in human dermal microvascular endothelial cells (HMEC) which are endothelial cells. The apoptosis rate in epithelial cells was measured by the M30-ApoptosisSense ELISA (PEVIVA, Bromma, Sweden), detecting cytokeratin 18 with a specific monoclonal M30 antibody, whereas before cytokeratin 18 was cleaved by the enzyme caspase. The HMEC cells grew semiconfluent in cell culture flasks, before plating them on a 6 well plate. One plate was stimulated with 10-5 and 10-6 M KdPT solved in routine medium (SFM, white column), the control plate was stimulated with the routine-medium alone."}, "[2]": {"test_system": "human sebocytes", "conditions": "cited from earlier work"}, "[3]": {"test_system": "murine DSS colitis", "assay": "Epithelial apoptosis rate in murine DSS-colitis (anti-active Caspase 3 staining of colon sections)", "assay_type": "in vivo", "conditions": "DSS-treated WT mice, KdPT 10 μg/day/animal i.p. daily, vs PBS control, P<0.05", "experimental": "To further evaluate the impact of KdPT on the epithelial apoptosis rate in vivo, the murine DSS colitis was performed. Dextran sodium sulfate (DSS)-induced colitis was accomplished as described in Bettenworth Am J Pathol 2011. WT mice were given 3% DSS (ICN Biomedicals Inc., Eschwege, Germany) in drinking water for 5 days, and disease activity was monitored daily by body weight measurement. Afterwards, the mice received regular drinking water again to monitor the improvement in inflammation. PBS-diluted KdPT (10 μg/day/animal; Bachem Americas Inc., Torrance, Calif.) was given daily by intraperitoneal (i.p.). injection until the end of the experiment. Control mice received PBS only.\nAt the end of the experiment, the mice were sacrificed and the colons removed. The colons were opened, embedded in Tissue-Tek O.C.T. (Sukura Finetek Europe, Zoeterwoude, The Netherlands), and kept frozen at −80° C. until further use. […] Immunhistological stainings were analyzed by two blinded investigators.\nTo assess apoptosis rate, the number of anti-active Caspase 3 positive cells per total crypt epithelial cells was counted. The number of anti-active Caspase 3 positive cells in colonic tissue was assessed as a […], determined after KdPT administration in DSS-treated mice."}, "[4]": {"test_system": "caco-2 cells (human intestinal epithelial cells)", "assay": "M30-ApoptosisSense ELISA (cytokeratin 18) apoptosis rate in intestinal epithelial cells", "assay_type": "cell-based", "conditions": "p<0.05, FIG. 1", "experimental": "The apoptosis rate in epithelial cells was measured by the M30-ApoptosisSense ELISA\n(PEVIVA, Bromma, Sweden), detecting cytokeratin 18 with a specific monoclonal M30 antibody, whereas before cytokeratin 18 was cleaved by the enzyme caspase. The caco-2 cells (human intestinal epithelial cells) grew semiconfluent in cell culture flasks, before plating them on a 6 well plate. One plate was stimulated with 10^−5 and 10^−6 M KdPT solved in routine medium (SFM, white column), the control plate was stimulated with the routine-medium alone."}, "[5]": {"test_system": "melanogenesis", "conditions": "in vitro; cited from earlier work"}, "[6]": {"test_system": "experimental colitis", "conditions": "both colitis models (DSS, IL-10 gene-deficient mice); cited from earlier work"}, "[7]": {"test_system": "colonic epithelial cells", "conditions": "cited from earlier work"}}, "data": [{"substance": "(I)Lys-(d)Pro-(I)Thr [KdPT]", "values": [{"measurement": "apoptosis rate (M30 ELISA, cytokeratin 18)", "setting": "[1]; HMEC costimulated with KdPT, 24 h incubation, control 1150.5 U/I", "result": 965.9, "unit": "U/I"}, {"measurement": "reduction of apoptosis rate", "setting": "[1]; HMEC, 10-5 and 10-6 M KdPT, 24 h incubation, vs control plate, p=0.002", "result": 19.2, "unit": "%"}, {"measurement": "apoptosis rate on costimulation with KdPT (in words)", "setting": "[1]; HMEC, FIG. 2", "result": "significant reduction of the apoptosis rate"}, {"measurement": "IL-1(beta)-mediated cytokine expression and signaling", "setting": "[2]", "result": "suppresses"}, {"measurement": "number of anti-active Caspase 3 positive cells per total crypt epithelial cells", "setting": "[3]", "result": "dramatically decreased"}, {"measurement": "apoptosis rate on costimulation with KdPT (in words)", "setting": "[4]", "result": "significant reduction of the apoptosis rate"}, {"measurement": "melanogenesis", "setting": "[5]", "result": "did not affect melanogenesis"}, {"measurement": "severity of inflammation", "setting": "[6]", "result": "markedly reduced severity of inflammation"}, {"measurement": "transepithelial electrical resistance", "setting": "[7]; after stimulation with interferon-γ/tumor necrosis factor-α", "result": "improved transepithelial electrical resistance"}, {"measurement": "closure of wounds", "setting": "[7]; colonic epithelial cells", "result": "accelerated closure of wounds"}, {"measurement": "proliferation", "setting": "[7]; colonic epithelial cells", "result": "increased proliferation"}]}]}
